Paper PMC9283466, “In silico identification of two peptides with antibacterial activity against multidrug-resistant Staphylococcus aureus” (NPJ Biofilms and Microbiomes, 2022)
≈ marks a conversion by molar mass, not a printed value. Peptide text beside a SMILES is read from it.

Tests used:
[1] = system: S. aureus EMRSA-15; test: microbe, parasite or virus in culture; assay type: cell-based, Staphylococcus aureus; settings: Staphylococcus aureus; S. aureus EMRSA-15; resistances MRSA, Cip; read-out: MIC
Experimental: (§1) To determine the antimicrobial activity of the new antimicrobial peptides, HG2 and HG4, their minimum inhibitory concentrations (MICs) were determined by broth microdilution method[51] in cation adjusted Mueller Hinton broth (MHB) following the International Organisation for Standardisation (ISO) 20776-1 standard for MIC testing using a final bacterial inoculum of 5 × 10^5 CFU/ml[52]. […] The peptides dissolved in sterile distilled water were added to bacteria culture and incubated overnight at appropriate conditions. The MICs of the peptides and comparator antibiotics were recorded after 18–24 h. The minimum bactericidal concentrations (MBCs) were also determined and were taken as the lowest concentration of the antimicrobial that prevented the growth of bacterial cells after the subculture of cells (from MIC treatment) onto antibiotic-free media.

[2] = system: S. aureus ATCC 33591; test: microbe, parasite or virus in culture; assay type: cell-based, Staphylococcus aureus; settings: Staphylococcus aureus; S. aureus ATCC 33591; MRSA; read-out: MIC
Experimental: as §1

[3] = system: S. aureus USA300 BAA-1717; test: microbe, parasite or virus in culture; assay type: cell-based, Staphylococcus aureus; settings: Staphylococcus aureus, BAA-1717 / MRSA / USA300; S. aureus USA300 BAA-1717; MRSA; read-out: MIC
Experimental: as §1

[4] = system: List. monocytogenes; test: microbe, parasite or virus in culture; assay type: cell-based, Listeria monocytogenes
Experimental: as §1

[5] = system: Sal. typhimurium; test: microbe, parasite or virus in culture; assay type: cell-based, Salmonella enterica serovar Typhimurium
Experimental: as §1

[6] = system: Ent. faecalis; test: microbe, parasite or virus in culture; assay type: cell-based, Enterococcus faecalis
Experimental: as §1

[7] = system: S. aureus; test: microbe, parasite or virus in culture; assay type: cell-based, Staphylococcus aureus
Experimental: as §1

[8] = system: EMRA-15; test: microbe, parasite or virus in culture; assay type: cell-based, Staphylococcus aureus
Experimental: as §1

[9] = system: P. aeruginosa; test: microbe, parasite or virus in culture; assay type: cell-based, Pseudomonas aeruginosa
Experimental: as §1

[10] = system: E. coli; test: microbe, parasite or virus in culture; assay type: cell-based, Escherichia coli
Experimental: as §1

[11] = system: MRSA USA300 cells; test: Serial passage / resistance assay; assay type: cell-based, Staphylococcus aureus; settings: sub-MIC exposure over 20 days, MRSA USA300
Experimental: In vitro evaluation of the potential for MRSA USA3000 cells to develop resistance to HG2 and HG4 was performed as follows. […] Cultures from the highest concentration that supported growth were diluted 1: 1000 in MHB and used to provide the inoculum for the next passage day. This process was performed for a total duration of 20 days. Any putative mutants recovered were isolated via streak dilution for three generations on MHA, prior to further characterisation.

[12] = system: MRSA USA300 cells; test: Time-kill kinetics; assay type: cell-based, Staphylococcus aureus; settings: 3x MIC, comparator antibiotics, time not stated
Experimental: The bactericidal activity of HG2, HG4 and comparator antimicrobial compounds was assessed using exponential-phase cultures[14] of MRSA USA300 grown in MHB (1 × 10^6-8 CFU/ml). […] Samples were taken at different time points, serially diluted and inoculated onto MH agar plates using the spread plate technique. After overnight incubation, the colony-forming units per millilitre of cell culture (CFU/ml) was calculated. Experiments were performed in quadruplicates.

Row | MIC [1] [µg/mL] | MIC [2] [µg/mL] | Minimum inhibitory Concentrations MICs [4] [µg/mL] | Minimum inhibitory Concentrations MICs [5] [µg/mL] | Minimum inhibitory Concentrations MICs [6] [µg/mL] | Minimum inhibitory Concentrations MICs [7] [µg/mL] | Minimum inhibitory Concentrations MICs [8] [µg/mL] | Minimum inhibitory Concentrations MICs [9] [µg/mL] | Minimum inhibitory Concentrations MICs [10] [µg/mL] | SMILES | MIC [3] [µg/mL] | fold increase in MIC during serial passage [11] [fold] | reduction in viable cells (time-kill) [12] [log10 CFU/ml]
1 | 1 (≈ 2.77 µM) | 0.015 (≈ 0.0415 µM) |  |  |  |  |  |  |  | C[C@H]1COc2c(N3CCN(C)CC3)c(F)cc3c(=O)c(C(=O)O)cn1c23 [Levof, levofloxacin] | 0.0075 (≈ 0.0208 µM) |  | 
2 |  |  | > 1024 | > 1024 | > 1024 | > 1024 | > 1024 | > 1024 | > 1024 | CC[C@H](C)[C@H](NC(=O)[C@H](CC(C)C)NC(=O)[C@H](CC(C)C)NC(=O)[C@H](CC(C)C)NC(=O)[C@H](CCCCN)NC(=O)[C@H](CCCCN)NC(=O)[C@@H](N)CCSC)C(=O)N[C@@H](CC(C)C)C(=O)N[C@@H](Cc1ccccc1)C(=O)N[C@@H](CS)C(=O)N[C@@H](CC(C)C)C(=O)N[C@@H](C)C(=O)N[C@@H](CC(C)C)C(=O)N[C@@H](C)C(=O)N[C@@H](CC(C)C)C(=O)N[C@@H](C)C(=O)NCC(=O)N[C@@H](CS)C(=O)N[C@@H](CCCCN)C(=O)N[C@@H](CCCCN)C(=O)N[C@@H](C)C(=O)N1CCC[C@H]1C(N)=O [Linear HG2] (H-MKKLLLILFCLALALAGCKKAP-NH2; N-terminus and C-terminus assumed) |  |  | 
3 |  |  |  |  |  |  |  |  |  | C/C(=C\C(=O)OCCCCCCCCC(=O)O)C[C@@H]1OC[C@H](C[C@@H]2O[C@H]2[C@@H](C)[C@H](C)O)[C@@H](O)[C@H]1O [Mupirocin, reference compound] | 0.12 (≈ 0.24 µM) | 32 | ≥ 2
